Data as given in patent US12134640B2, “Polypeptides and medical uses thereof” (priority 2016, dated 2024).
No end group written: not given here.

How the values were obtained:
S. pyogenes = type: cell-based, Streptococcus pyogenes strain AP1; conditions: positive control, 3 μM LL-37
Method: (§1) Viable count assay Bacteria were grown to mid-logarithmic phase (OD620≈ 0.4) in THB-medium at 37° C. with 5% CO2. The bacterial solution was subsequently washed and adjusted to 2×10^9 cfu/ml in 10 mM Tris, pH 7.4, containing 5 mM glucose. S. pyogenes, S. aureus, E. coli or P. aeruginosa were then incubated with 2 μM of purified collagen type VI at 37° C. for 2 h. In some experiments S. pyogenes was incubated with recombinant collagen type VI fragments at various concentrations (0.125, 0.25, 0.5, 1.0 and 2.0 μM) for 2 h at 37° C. Bacteria incubated with Tris-HCl pH 7.4 buffer or 3 μM LL-37 (Innovagen, Lund, Sweden) were used as negative and positive controls respectively. To quantify the bactericidal activity, serial dilutions of the incubation mixtures were plated on blood agar plates, followed by incubation at 37° C. overnight, and the number of colony forming units (cfu) were determined. Hundred percent survival was defined as total survival of bacteria in the same buffer and under the same condition in the absence of collagen type VI or recombinant proteins.

S. aureus = type: cell-based, Staphylococcus aureus strain 111; conditions: positive control, 3 μM LL-37
Method: as §1

E. coli = type: cell-based, Escherichia coli strain 1351; conditions: positive control, 3 μM LL-37
Method: as §1

P. aeruginosa = type: cell-based, Pseudomonas aeruginosa PAO1; conditions: positive control, 3 μM LL-37
Method: as §1

[1] = Membrane permeabilization assay (carboxyfluorescein efflux from liposomes); conditions: 10 mM Tris pH 7.4, 37° C., 45 min
Method: Dry lipid films of E. coli polar lipid extract were formed in round-bottom flask walls by dissolving lipids in chloroform, followed by evaporation under N2-flow and subsequently placed in vacuum overnight. Lipid films were re-suspended either by 30 min stirring (E. coli), at 55° C. in an aqueous solution of 100 mM 5(6)-carboxyfluorescein in 10 mM Tris (set to pH 7.4 at 37° C.). Suspensions were then vortexed followed by repeated extrusion through a 100 nm polycarbonate membrane mounted in a LipoFast mini-extruder (Avanti Polar Lipids) in order to reduce multilamellar structures and polydispersity. Un-trapped carboxyfluorescein was removed by gel filtration on Sephadex PD-10 columns (GE Healthcare, Little Chalfont, UK). Membrane permeability was measured by monitoring carboxyfluorescein efflux from the liposomes to the external low concentration environment, resulting in loss of self-quenching and an increased fluorescence signal with excitation and emission wavelengths of 492 and 517 nm, respectively. Fluorescence was measured with a Varioskan Flash Multimode Reader (Thermo Fisher Scientific, Waltham, MA) in black Nunc Delta Surface 96-well plate (Thermo Fisher Scientific, Roskilde, DK). […] The effects of each peptide concentration on the liposome systems were monitored for 45 min, at which point the initial leakage had largely subsided. […]

[2] = test system: S. pyogenes, S. aureus, E. coli and P. aeruginosa; assay: Bactericidal assay (viable count), statements on the whole panel; type: cell-based; conditions: salt conditions (150 mM NaCl, pH 7.4)
Method: Bacteria were grown to mid-logarithmic phase (OD620≈0.4) in THB medium at 37° C., with 5% CO2. The bacterial solution was subsequently washed and adjusted to 2×10^7 cfu/ml in salt buffer (10 mM Tris-HCl, 150 mM NaCl supplemented with 5 mM glucose; pH 7.4) (both from Sigma-Aldrich). Various concentrations of peptides (0.3, 0.6, 3, 6, 30 and 60 μM) were incubated with bacteria in salt buffer with or without 20% human plasma. Bacteria incubated in only salt buffer with or without plasma were used as negative controls. Samples with LL-37 served as positive controls. The samples were incubated for 2 h at 37° C. with 5% CO2. To quantify the bactericidal activity, serial dilutions of the incubation mixtures were plated on THB agar plates, followed by incubation at 37° C. with 5% CO2 overnight, and the number of cfu were determined. Experiments were performed in triplicate. Hundred percent survival was defined as total survival of bacteria in the same buffer and under the same condition in the absence of peptides.

[3] = test system: RAW 264.7 macrophage cells; assay: LPS stimulation of macrophages in vitro (nitrite, Griess reagent); type: cell-based, murine; conditions: LPS 10 ng/ml pre-incubated with peptide, 24 h
Method: Murine macrophage-like cells (RAW 264.7; ATCC) were seeded in 96-well plates at 3.5×10^5 cells/well in DMEM (without phenol red, PAA Laboratories) supplemented with 10% fetal calf serum and antibiotic-antimycotic (Invitrogen, Carlsbad, CA). After overnight incubation at 37° C., the cells were washed once with DMEM. LPS (10 ng/ml) was pre-incubated with the peptides for 20 min at room temperature and added to the cells. The cells were subsequently incubated for 24 h at 37° C. Griess reagent (Sigma, St. Louis, MO) was added to culture supernatant in 1:1 ratio followed by 15 min incubation in dark. The absorbance was then measured at 550 nm with a spectrophotometer. The cells with and without LPS stimulation were taken as positive and negative controls for LPS-induction. For the determination of NO production with peptides and LPS treatments, the assay was done in triplicate and the average values were considered for each set. Cells were grown at 37° C. and with 5% CO2 in fully humidified air.

P. aeruginosa 15159 = assay: Invasive P. aeruginosa infection model, survival; type: in vivo, Female BALB/c mice
Method: Animal experiments were performed according to a protocol approved by the Local Ethics Committee at Lund University. Animals were housed under standard conditions of light and temperature and had free access to standard laboratory chow and water. P. aeruginosa 15159 bacteria were grown to mid-exponential phase (A620˜0.5), washed and diluted in PBS to 2×10^8 cfu/ml, and kept on ice until injection. Female BALB/c mice, 8 weeks old, were anesthetized with isoflurane and injected intraperitoneally with 100 μL of the bacterial solution, followed by injection of 100 μL SFV33 or GVR28 peptide (1 mg/mL) after 15 minutes, or with 100 μL PBS alone (control group).

[4] = test system: human monocytic THP-1 cells; assay: Lactate dehydrogenase (LDH) assay; type: cell-based; conditions: at 50 μM
Method: The cytotoxicity experiments were performed as described previously (41). Briefly, human monocytic THP-1 cells (American Type Culture Collection (ATCC), Manassas, VA) were cultured into 96-well plates using Dulbecco's Modified Eagle's medium (DMEM) (PAA Laboratories) supplemented with 10% fetal calf serum. The medium was removed and the cells were subsequently washed with DMEM. Peptides (1, 5, 10, 20, 50 μM) diluted in DMEM were added in triplicates. The LDH based TOX-7 kit (Sigma-Aldrich) was used according to the manufacturer instructions. The amount of LDH release from dead cells was measured at 450 nm. As a positive control 2% Triton X-100 was used.

CC[C@H](C)[C@H](NC(=O)[C@H](CCCCN)NC(=O)[C@H](CCC(=O)O)NC(=O)[C@H](CCCCN)NC(=O)[C@H](CO)NC(=O)[C@H](CCCCN)NC(=O)[C@H](CCCNC(=N)N)NC(=O)[C@H](Cc1ccccc1)NC(=O)[C@H](Cc1ccccc1)NC(=O)[C@H](CC(=O)O)NC(=O)CNC(=O)[C@H](CC(C)C)NC(=O)[C@@H](N)CC(C)C)C(=O)NCC(=O)N[C@@H](CCCCN)C(=O)N[C@@H](CCC(=O)O)C(=O)N[C@@H](Cc1ccccc1)C(=O)N[C@@H](CCCCN)C(=O)N[C@@H](CCCNC(=N)N)C(=O)N[C@H](C(=O)N[C@H](C(=O)N[C@@H](CCC(N)=O)C(=O)N[C@@H](CCCNC(=N)N)C(=O)N[C@H](C(=O)N[C@@H](CCCCN)C(=O)N[C@@H](CC(=O)O)C(=O)N[C@@H](Cc1ccccc1)C(=O)N[C@@H](CC(C)C)C(=O)N[C@@H](CCCNC(=N)N)C(=O)N[C@@H](CC(N)=O)C(=O)N[C@@H](CC(C)C)C(=O)N[C@H](C(=O)N1CCC[C@H]1C(=O)N[C@@H](CCCNC(=N)N)C(=O)N[C@H](C(=O)N[C@@H](CCC(=O)O)C(=O)N[C@@H](CO)C(=O)O)[C@@H](C)O)C(C)C)[C@@H](C)CC)C(C)C)[C@@H](C)CC [LL-37]
killing (S. pyogenes): ~100% | killing (S. aureus): ~100% | killing (E. coli): ~100% | killing (P. aeruginosa): ~100%

FYLKTYRSQAPVLDAIRRLRLRGGS (FYL25 peptide) [peptide derived from VWA domain of collagen type VI α3-chain]
membrane leakage (release of carboxyfluorescein) [1]: highest membrane leakage

GVRPDGFAHIRDFVSRIVRRLNIGPSKV (GVR28 peptide) [peptide derived from VWA domain of collagen type VI α3-chain]
antibacterial activity (viable count) [2]: somewhat reduced effects | LPS-induction of nitrite [3]: significantly suppressed the LPS-induction of nitrite | survival compared with PBS group (P. aeruginosa 15159; experiment terminated after 29 hours): prolonged survival | time at which 50% mortalities were observed (P. aeruginosa 15159; mice infected i.p., single dose 100 μL peptide (1 mg/mL) 15 minutes after infection): 24 h

SFVARNTFKRVRNGFLMRKVAVFFSNTPTRASP [SFV33]
toxicity towards monocytes (LDH release) [4]: exhibited toxicity
